Laboratory results: the supplement of paper PMC4862054

Tests used:
Assay in all cases: normalised response (% of control), CellTiter-Glo; higher = more viable cells (100 = DMSO, 0 = benzethonium chloride kill control)
Settings in all cases: incubation time: 72 h
DU-4475 = system: DU-4475
Method in brief: (§1)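 Each value is the plate-normalised signal at one concentration of the series. Breast cancer cell lines (20 µl suspension) were incubated 72 h in 384-well plates with compound at 5 concentrations in 10-fold steps over a compound-specific 10,000-fold range. CellTox Green and then CellTiter-Glo were read, and each plate was scaled to 0.1 % DMSO (100) and a positive kill control (0).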

MFM-223 = system: MFM-223
Method in brief: as §1

HCC1599 = system: HCC1599
Method in brief: as §1

MCF-10A = system: MCF-10A
Method in brief: as §1

HDQ-P1 = system: HDQ-P1
Method in brief: as §1

Hs578T = system: Hs578T
Method in brief: as §1

CAL-148 = system: CAL-148
Method in brief: as §1

BT-474 = system: BT-474
Method in brief: as §1

CAL-85-1 = system: CAL-85-1
Method in brief: as §1

BT-549 = system: BT-549
Method in brief: as §1

HCC1937 = system: HCC1937
Method in brief: as §1

MDA-MB-453 = system: MDA-MB-453
Method in brief: as §1

HCC1143 = system: HCC1143
Method in brief: as §1

CAL-120 = system: CAL-120
Method in brief: as §1

MDA-MB-436 = system: MDA-MB-436
Method in brief: as §1

MDA-MB-231 = system: MDA-MB-231
Method in brief: as §1

MDA-MB-468 = system: MDA-MB-468
Method in brief: as §1

CAL-51 = system: CAL-51
Method in brief: as §1

| SMILES | normalised response (DU-4475) | normalised response (MFM-223) | normalised response (HCC1599) | normalised response (MCF-10A) | normalised response (HDQ-P1) | normalised response (Hs578T) | normalised response (CAL-148) | normalised response (BT-474) | normalised response (CAL-85-1) | normalised response (BT-549) | normalised response (HCC1937) | normalised response (MDA-MB-453) | normalised response (HCC1143) | normalised response (CAL-120) | normalised response (MDA-MB-436) | normalised response (MDA-MB-231) | normalised response (MDA-MB-468) | normalised response (CAL-51) |
| --- | --- | --- | --- | --- | --- | --- | --- | --- | --- | --- | --- | --- | --- | --- | --- | --- | --- | --- |
| COc1c(C)cnc(Cn2cnc3c(Cl)nc(N)nc32)c1C [BIIB021] (10 nM) | 102% | 102% | 109% | 96.6% | 97.5% | 97.6% | 94.6% | 101% | 96.9% | 99.6% | 105% | 102% | 108% | 99% | 101% | 99.3% | 102% | 116% |
| CC(=O)O[C@H]1C(=O)[C@@]2(C)[C@H]([C@H](OC(=O)c3ccccc3)[C@]3(O)C[C@H](OC(=O)[C@H](O)[C@@H](NC(=O)c4ccccc4)c4ccccc4)C(C)=C1C3(C)C)[C@]1(OC(C)=O)CO[C@@H]1C[C@@H]2O [Paclitaxel] (1 nM) | 92.2% | 89.5% | 97.8% | 81.5% | 89.8% | 88.8% | 89.2% | 89.5% | 99.5% | 93.1% | 94.7% | 92.8% | 90.4% | 91.6% | 91.4% | 88.6% | 96.1% | 129% |
| COc1ccc(C2=N[C@@H](c3ccc(Cl)cc3)[C@@H](c3ccc(Cl)cc3)N2C(=O)N2CCNC(=O)C2)c(OC(C)C)c1 [Nutlin-3] (10 nM) | 104% | 103% | 104% | 99.6% | 100% | 104% | 102% | 97.4% | 101% | 101% | 103% | 100% | 106% | 98.3% | 99.9% | 100% | 105% | 86.3% |
| O=c1[nH]cc(F)c(=O)[nH]1 [Fluorouracil] (10 nM) | 110% | 113% | 99.3% | 111% | 102% | 110% | 112% | 103% | 96.1% | 107% | 106% | 101% | 121% | 95.1% | 99.1% | 107% | 105% | 104% |
| C#Cc1cccc(Nc2ncnc3cc(OC)c(OCCCCCCC(=O)NO)cc23)c1 [CUDC-101] (10 nM) | 99% | 100% | 93.9% | 97.5% | 95.8% | 96.4% | 87.5% | 98% | 92.6% | 101% | 104% | 103% | 99.9% | 99.8% | 105% | 98.1% | 101% | 84.9% |
| C[C@@H]1CCN(C(=O)CC#N)C[C@@H]1N(C)c1ncnc2[nH]ccc12 [Tofacitinib] (5 nM) | 110% | 101% | 115% | 108% | 103% | 103% | 111% | 114% | 112% | 97.2% | 96.3% | 120% | 105% | 95.7% | 104% | 103% | 104% | 122% |
| CC(C)C[C@H](NC(=O)[C@H](Cc1ccccc1)NC(=O)c1cnccn1)B(O)O [Bortezomib] (1 nM) | 101% | 103% | 108% | 102% | 101% | 109% | 102% | 99.2% | 98.8% | 98.2% | 98.8% | 97% | 94.2% | 102% | 90.8% | 104% | 95% | 77.6% |
| COc1cccc2c1C(=O)c1c(O)c3c(c(O)c1C2=O)C[C@@](O)(C(C)=O)C[C@@H]3O[C@H]1C[C@H](N)[C@H](O)[C@H](C)O1 [Daunorubicin] (1 nM) | 107% | 108% | 109% | 107% | 104% | 112% | 109% | 106% | 96.2% | 94.2% | 99.9% | 108% | 109% | 96.9% | 101% | 105% | 105% | 122% |
| O=c1[nH]c(=O)n([C@H]2C[C@H](O)[C@@H](CO)O2)cc1F [Floxuridine] (10 nM) | 98.1% | 111% | 93.1% | 105% | 90.2% | 92.3% | 110% | 102% | 104% | 100% | 98.2% | 111% | 109% | 99.5% | 92.5% | 105% | 96.7% | 122% |
| Nc1nccc(-c2c(-c3ccc(F)cc3)ncn2C2CCCCC2)n1 (10 nM) | 107% | 110% | 86.8% | 111% | 102% | 107% | 116% | 106% | 106% | 90.7% | 100% | 106% | 110% | 102% | 95.7% | 100% | 96% | 104% |
| FC(F)c1nc2ccccc2n1-c1nc(N2CCOCC2)nc(N2CCOCC2)n1 [ZSTK474] (10 nM) | 101% | 100% | 105% | 103% | 95% | 101% | 99.7% | 98.2% | 92.5% | 95.4% | 99.8% | 101% | 97.6% | 96.9% | 91.3% | 89.9% | 100% | 75.5% |
